According to patent US5250683A, “Certain substituted taxanes and pharmaceutical compositions containing them” (Florida State University, priority 1992, dated 1993):

The molecules below were run on tubulin (assay: Tubulin binding assay (Tubulin Assay), method of Parness et al.). Details: compared to taxol and taxotere.

| SMILES | Tubulin Assay Init. Peak | Tubulin Assay Rel. Rate |
| --- | --- | --- |
| CC(=O)O[C@@]12CO[C@@H]1C[C@H](O)[C@@]1(C)C(=O)[C@H](O)C3=C(C)[C@@H](OC(=O)[C@H](O)[C@@H](NC(=O)OC(C)(C)C)c4ccccc4)C[C@@](O)([C@@H](OC(=O)c4ccccc4)[C@H]21)C3(C)C [Taxotere, taxotere, reference compound] | 100 |  |
| COc1ccc([C@H](NC(=O)c2ccc(C(C)(C)C)cc2)[C@@H](O)C(=O)O[C@H]2C[C@@]3(O)[C@@H](OC(=O)c4ccccc4)[C@@H]4[C@]5(OC(C)=O)CO[C@@H]5C[C@H](O)[C@@]4(C)C(=O)[C@H](OC(C)=O)C(=C2C)C3(C)C)cc1 [Example 31, N-debenzoyl-N-(4-t-butylbenzoyl)-3'-desphenyl-3'-(4-methoxyphenyl) taxol] | 24 | 44 |
| CC(=O)O[C@H]1C(=O)[C@@]2(C)[C@H]([C@H](OC(=O)c3ccccc3)[C@]3(O)C[C@H](OC(=O)[C@H](O)[C@@H](NC(=O)c4ccccc4)c4ccc(Cl)cc4)C(C)=C1C3(C)C)[C@]1(OC(C)=O)CO[C@@H]1C[C@@H]2O [Example 4, 3'-desphenyl-3'-(4-chlorophenyl) taxol] | 94 | 97 |
| CC(=O)O[C@H]1C(=O)[C@@]2(C)[C@H]([C@H](OC(=O)c3ccccc3)[C@]3(O)C[C@H](OC(=O)[C@H](O)[C@@H](NC(=O)c4ccccc4)c4ccc(Br)cc4)C(C)=C1C3(C)C)[C@]1(OC(C)=O)CO[C@@H]1C[C@@H]2O [Example 5, 3'-desphenyl-3'-(4-bromophenyl) taxol] | 5 | 74 |
| COc1ccc(C(=O)N[C@@H](c2ccc(OC)cc2)[C@@H](O)C(=O)O[C@H]2C[C@@]3(O)[C@@H](OC(=O)c4ccccc4)[C@@H]4[C@]5(OC(C)=O)CO[C@@H]5C[C@H](O)[C@@]4(C)C(=O)[C@H](OC(C)=O)C(=C2C)C3(C)C)cc1 [Example 32, N-debenzoyl-N-(4-methoxybenzoyl)-3'-desphenyl-3'-(4-methoxyphenyl) taxol] | 51 | 81 |
| COc1ccc([C@H](NC(=O)c2ccc(F)cc2)[C@@H](O)C(=O)O[C@H]2C[C@@]3(O)[C@@H](OC(=O)c4ccccc4)[C@@H]4[C@]5(OC(C)=O)CO[C@@H]5C[C@H](O)[C@@]4(C)C(=O)[C@H](OC(C)=O)C(=C2C)C3(C)C)cc1 [Example 21, N-debenzoyl-N-(4-fluorobenzoyl)-3'-desphenyl-3'-(4-methoxyphenyl) taxol] | 45 | 81 |
| CC(=O)O[C@H]1C(=O)[C@@]2(C)[C@H]([C@H](OC(=O)c3ccccc3)[C@]3(O)C[C@H](OC(=O)[C@H](O)[C@@H](NC(=O)c4ccc(C)cc4)c4ccc(F)cc4)C(C)=C1C3(C)C)[C@]1(OC(C)=O)CO[C@@H]1C[C@@H]2O [Example 20, N-debenzoyl-N-(4-methylbenzoyl)-3'-desphenyl-3'-(4-fluorophenyl) taxol] | 85 | 98 |
| CC(=O)O[C@H]1C(=O)[C@@]2(C)[C@H]([C@H](OC(=O)c3ccccc3)[C@]3(O)C[C@H](OC(=O)[C@H](O)[C@@H](NC(=O)c4ccccc4)c4ccc5c(c4)OCO5)C(C)=C1C3(C)C)[C@]1(OC(C)=O)CO[C@@H]1C[C@@H]2O [Example 6, 3'-desphenyl-3'-(3,4-methylenedioxyphenyl) taxol] | 53 | 85 |
| CC(=O)O[C@H]1C(=O)[C@@]2(C)[C@H]([C@H](OC(=O)c3ccccc3)[C@]3(O)C[C@H](OC(=O)[C@H](O)[C@@H](NC(=O)c4ccc(Br)cc4)c4ccc(F)cc4)C(C)=C1C3(C)C)[C@]1(OC(C)=O)CO[C@@H]1C[C@@H]2O [Example 19, N-debenzoyl-N-(4-bromobenzoyl)-3'-desphenyl-3'-(4-fluorophenyl) taxol] | 88 | 100 |
| CC(=O)O[C@H]1C(=O)[C@@]2(C)[C@H]([C@H](OC(=O)c3ccccc3)[C@]3(O)C[C@H](OC(=O)[C@H](O)[C@@H](NC(=O)c4ccccc4)c4ccc([N+](=O)[O-])cc4)C(C)=C1C3(C)C)[C@]1(OC(C)=O)CO[C@@H]1C[C@@H]2O [Example 8, 3'-desphenyl-3'-(4-nitrophenyl) taxol] | 114 | 105 |
| CC(=O)O[C@H]1C(=O)[C@@]2(C)[C@H]([C@H](OC(=O)c3ccccc3)[C@]3(O)C[C@H](OC(=O)[C@H](O)[C@@H](NC(=O)c4ccccc4)c4ccccc4)C(C)=C1C3(C)C)[C@]1(OC(C)=O)CO[C@@H]1C[C@@H]2O [Taxol, taxol, reference compound] | 100 | 98 |
| CC(=O)O[C@H]1C(=O)[C@@]2(C)[C@H]([C@H](OC(=O)c3ccccc3)[C@]3(O)C[C@H](OC(=O)[C@H](O)[C@@H](NC(=O)c4ccc(Cl)cc4)c4ccccc4)C(C)=C1C3(C)C)[C@]1(OC(C)=O)CO[C@@H]1C[C@@H]2O [Example 10, N-debenzoyl-N-(4-chlorobenzoyl) taxol] | 75 | 90 |
| CC(=O)O[C@H]1C(=O)[C@@]2(C)[C@H]([C@H](OC(=O)c3ccccc3)[C@]3(O)C[C@H](OC(=O)[C@H](O)[C@@H](NC(=O)c4ccccc4)c4ccc5ccccc5c4)C(C)=C1C3(C)C)[C@]1(OC(C)=O)CO[C@@H]1C[C@@H]2O [Example 2, 3'-desphenyl-3'-(2-naphthyl) taxol] | 0 | 0 |
| CC(=O)O[C@H]1C(=O)[C@@]2(C)[C@H]([C@H](OC(=O)c3ccccc3)[C@]3(O)C[C@H](OC(=O)[C@H](O)[C@@H](NC(=O)c4ccc(C(C)(C)C)cc4)c4ccccc4)C(C)=C1C3(C)C)[C@]1(OC(C)=O)CO[C@@H]1C[C@@H]2O [Example 13, N-debenzoyl-N-(4-t-butylbenzoyl) taxol] | 67 | 85 |
| COc1ccc([C@H](NC(=O)c2ccc(C)cc2)[C@@H](O)C(=O)O[C@H]2C[C@@]3(O)[C@@H](OC(=O)c4ccccc4)[C@@H]4[C@]5(OC(C)=O)CO[C@@H]5C[C@H](O)[C@@]4(C)C(=O)[C@H](OC(C)=O)C(=C2C)C3(C)C)cc1 [Example 22, N-debenzoyl-N-(4-methylbenzoyl)-3'-desphenyl-3'-(4-methoxyphenyl) taxol] | 77 | 96 |
| CC(=O)O[C@H]1C(=O)[C@@]2(C)[C@H]([C@H](OC(=O)c3ccccc3)[C@]3(O)C[C@H](OC(=O)[C@H](O)[C@@H](NC(=O)c4ccc(Cl)cc4)c4ccc(F)cc4)C(C)=C1C3(C)C)[C@]1(OC(C)=O)CO[C@@H]1C[C@@H]2O [Example 18, N-debenzoyl-N-(4-chlorobenzoyl)-3'-desphenyl-3'-(4-fluorophenyl) taxol] | 109 | 92 |
| CC(=O)O[C@H]1C(=O)[C@@]2(C)[C@H]([C@H](OC(=O)c3ccccc3)[C@]3(O)C[C@H](OC(=O)[C@H](O)[C@@H](NC(=O)c4ccc(C(C)(C)C)cc4)c4ccc(Cl)cc4)C(C)=C1C3(C)C)[C@]1(OC(C)=O)CO[C@@H]1C[C@@H]2O [Example 26, N-debenzoyl-N-(4-t-butylbenzoyl)-3'-desphenyl-3'-(4-chlorophenyl) taxol] | 13 | 23 |
